Laboratory results: patent publication US10017463B2, “Inhibitors of deubiquitinating proteases” (Brandeis University, priority 2014, dated 2018)
Read-outs that look alike come from different tables or passages of the source.

Assays:
DUBs = test: Cy5-Ub-VME activity profiling of treated BaF3/p210 cells; format: cell-based, murine; conditions: 50 μM, 4 h
Experimental: FIG. 9 has two panels (A and B) depicting data showing that TUs inhibit DUBs in cells. BaF3/p210 cells were incubated with the stated concentration of compound for 4 h. After this time cells were lysed using beads, lysates were normalized, then exposed to Cy5-Ub-VME for 5 min. After quenching, lysates were resolved by SDS-PAGE, analyzed on typhoon, then stained by Coomassie. Panel A is an image of the SDS-PAGE gel visualized via Typhoon imager. Panel B is an image of the SDS PAGE gel stained with Coomassie.
Panel A is the chemical structure of TU71. Panel B is an image of an immunoblot showing a K562 cell was treated with TU71 for 15 min at which time HAUb-VS was added. After an additional 15 min, aliquots were quenched in reducing loading buffer and analyzed by SDS-PAGE and HA blot. […] BaF3/p21 0 cells were treated with TU71 for 2.5 h (Panel C) or 4 h (Panel D). Cells were harvested, lysed and incubated (0.7 mg/mL protein) with 250 nM Cy5-UbVME for 5 min at 37° C. […] Panel E is an image of an immunoblot showing BaF3/p210 cells were incubated with TU71 for 4 h. The cells were harvested, lysed, analyzed by SDS-PAGE and immunoblotted as indicated. “cPARP” indicates the caspase cleavage of product of PARP and is indicative of apoptosis. Panel F is a bar graph showing data representative of mean±range of two independent experiments, one performed in duplicate of the blot depicted in Panel E.
The increased promiscuity of the inhibitors when the experiment is carried out in cells likely stems from the increased assay time (4 h vs 20 min) coupled with the slow on rates of the inhibitors and their targets.

K48-linked ubiquitin = K48-linked ubiquitin immunoblot in BaF3/p210 cells; format: cell-based, murine; conditions: 4 h, various concentrations
Experimental: Panel A is an image of an immunoblot showing BaF3/p210 cells were treated with various concentrations of TU46 for 4 h, and then whole cell lysates were blotted for K48-linked ubiquitin and tubulin. Panel B is an immunoblot showing same lysates as in Panel A were blotted for Bcr-Abl.
The K48-linked ubiquitin levels were also probed in these lysates. […] The increase in K48-linked ubiquitin coincided with the loss of Bcr-Abl (FIG. 8, Panel B). Since USP9x is known to deubiquitinate K48-linked polyubiquitin chains, it is possible that this increase in K48-linked ubiquitin is due to USP9x inhibition. See Park et al., PNAS 110, 9433-9438 (2013).

3T3 = test: Proliferation assay, 3T3; conditions: Mus musculus, NIH3T3, 72 h, read-out: EC50 growth inhibition 3T3
Experimental: Proliferation assays for adherent cells were conducted by plating cells at 5%-10% confluence in 96 well plates together with compound or 0.1% DMSO. Cells were allowed to grow for 48 h and then Alamar Blue® was added and number of cells was measured by fluorescence on a microplate reader.

BaF3 parent = test: Growth inhibition assay, BaF3 parent; format: cell-based; conditions: at higher concentrations than BaF3/p210
Text: MCL1 is required to sustain growth of many transformed cells and is also regulated by USP9x. […] These findings help to explain why these compounds are toxic to Bcr-Abl independent cancer lines, especially BaF3.

HeLa cells = test: Annexin V-FITC/PI apoptosis assay, HeLa; format: cell-based; conditions: 15 or 30 μM, 24 h
Experimental: (§1) (each point is shown as mean+/−s.d. of 2 replicates). Panel A is a bar graph showing the data for HeLa cells (30 μM); Panel B is a bar graph showing the data for K562 (30 μM); Panel C is a bar graph showing the data for K562 (15 μM).
(§2) Since K562 cells are dependent upon Bcr-Abl for survival, it was predicted that these cells would also be susceptible to TU compounds. However, K562 cells gave a very weak signal in the Alamar Blue® assay. In lieu of the Alamar Blue assay, an apoptosis assay was used to show susceptibility. This assay uses fluorescein-modified Annexin V to detect phosphatidyl serine (PS) on the cell surface. See Vermes et al., J. Immon. Meth. 184, 39-51 (1995). PS is typically expressed on the inner leaflet of the cell membrane. However in the early stages of apoptosis, PS translocates to the outer leaflet and can be bound by Annexin V. Thus, during apoptosis cells will become greener in the presence of Annexin V-Fluorescine.

USP9x [1] = target: T1, USP9x (Homo sapiens, UniProt Q93008); test: HA-Ubiquitin-Vinylsulfone activity profiling in K562 lysates; format: biochemical
T1 construct: Lysate labeling assay on untransfected cells; endogenous in cells; host or cells: K562
Experimental: Panel B is an image of an immunoblot showing the titration of TCM23 and TCM28 in K562 lysates. Panel C is a plot showing the quantitation of band corresponding to USP9x in panel B. Panel D is an image of an immunoblot showing the titration of WP1130 in K562 lysates. Panel E is a plot showing the quantification of the efficacy of ITCs for the inhibition of USP9x in K562 lysates (see also Table 2).
[…] After this time HA-Ub-VS (1.5 μM) was added and incubated for 15 min. After this time reaction mixture (15 μL) was removed and quenched in 2× (final concentration) reducing Laemeli buffer. The reaction mixtures were heated to 37° C. for 10 min prior to analysis by western blot for HA.

[2] = target: purified recombinant USP9x (Homo sapiens, UniProt Q93008); test: Purified recombinant USP9x, Cy5-Ub-VME activity profiling; format: biochemical; conditions: for inhibition of USP9x in presence of USP7CD: at 12.5 μM; for fluorescent signal of USP9x-(Cy5-Ub-VME) complex: preincubation at 50 or 25 μM
Experimental: (§3) Panel A is an image showing that purified recombinant USP9x (7 nM) was treated with the stated compound at 50 μM for 19 min prior to addition of Cy5-Ub-VME for 5 min, then the mixture was resolved by S.D.S-PAGE and analyzed on a typhoon imager. Panel B is an image of an immunoblot showing purified recombinant USP9x (7 nM) and USP7CD (20 nM) were treated with the stated compound at the stated concentration for 19 min prior to addition of Cy5-Ub-VME for 5 min then the mixture was resolved by S.D.S-PAGE and analyzed on a Typhoon imager.

[3] = target: T2, USP7 catalytic domain (USP7CD) (Homo sapiens, UniProt Q93009); test: USP7 catalytic domain, Cy5-Ub-VME activity profiling; format: biochemical; conditions: at 12.5 μM
T2 construct: USP7 catalytic domain (USP7CD)
Experimental: as §3
In addition, the amount of free inhibitor is unknown and thus the true kon could be much higher.

K562 cells = test: Annexin V-FITC/PI apoptosis assay, K562; format: cell-based; conditions: 15 or 30 μM, 24 h
Experimental: as §1, §2

USP9x [4] = target: T3, USP9x (Mus musculus, UniProt P70398); test: Cy5-Ub-VME profiling of BaF3 lysates; format: biochemical, murine; conditions: BaF3 lysate, approximately 22 bands
T3 construct: endogenous in cells; host or cells: BaF3
Experimental: Panel A is an image of an immunoblot showing representative scans of lysates treated with compound for 15 min then Cy5-Ub-VME. Panel B is a plot of the bands in each lane using Image J processing and analysis software.
Using Image J, the individual lanes from the lysates were plotted as a function of TU50 concentration.

[5] = HA-Ub-VS profiling, values in text, read-out: EC50 for USP9x
[6] = inhibition of USP9x in K562 lysates, data from FIG. 1, read-out: EC50

T2 sequence (Q93009 214-521 limits assumed, species assumed): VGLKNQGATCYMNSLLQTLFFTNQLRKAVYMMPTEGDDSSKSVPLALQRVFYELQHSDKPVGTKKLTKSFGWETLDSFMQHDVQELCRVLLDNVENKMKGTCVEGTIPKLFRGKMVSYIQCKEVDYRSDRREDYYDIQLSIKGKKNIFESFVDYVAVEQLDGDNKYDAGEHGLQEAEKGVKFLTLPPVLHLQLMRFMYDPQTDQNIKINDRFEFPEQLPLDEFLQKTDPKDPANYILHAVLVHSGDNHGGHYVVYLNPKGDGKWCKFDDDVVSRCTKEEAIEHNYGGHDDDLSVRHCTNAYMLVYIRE
T1 sequence (Q93008 whole entry): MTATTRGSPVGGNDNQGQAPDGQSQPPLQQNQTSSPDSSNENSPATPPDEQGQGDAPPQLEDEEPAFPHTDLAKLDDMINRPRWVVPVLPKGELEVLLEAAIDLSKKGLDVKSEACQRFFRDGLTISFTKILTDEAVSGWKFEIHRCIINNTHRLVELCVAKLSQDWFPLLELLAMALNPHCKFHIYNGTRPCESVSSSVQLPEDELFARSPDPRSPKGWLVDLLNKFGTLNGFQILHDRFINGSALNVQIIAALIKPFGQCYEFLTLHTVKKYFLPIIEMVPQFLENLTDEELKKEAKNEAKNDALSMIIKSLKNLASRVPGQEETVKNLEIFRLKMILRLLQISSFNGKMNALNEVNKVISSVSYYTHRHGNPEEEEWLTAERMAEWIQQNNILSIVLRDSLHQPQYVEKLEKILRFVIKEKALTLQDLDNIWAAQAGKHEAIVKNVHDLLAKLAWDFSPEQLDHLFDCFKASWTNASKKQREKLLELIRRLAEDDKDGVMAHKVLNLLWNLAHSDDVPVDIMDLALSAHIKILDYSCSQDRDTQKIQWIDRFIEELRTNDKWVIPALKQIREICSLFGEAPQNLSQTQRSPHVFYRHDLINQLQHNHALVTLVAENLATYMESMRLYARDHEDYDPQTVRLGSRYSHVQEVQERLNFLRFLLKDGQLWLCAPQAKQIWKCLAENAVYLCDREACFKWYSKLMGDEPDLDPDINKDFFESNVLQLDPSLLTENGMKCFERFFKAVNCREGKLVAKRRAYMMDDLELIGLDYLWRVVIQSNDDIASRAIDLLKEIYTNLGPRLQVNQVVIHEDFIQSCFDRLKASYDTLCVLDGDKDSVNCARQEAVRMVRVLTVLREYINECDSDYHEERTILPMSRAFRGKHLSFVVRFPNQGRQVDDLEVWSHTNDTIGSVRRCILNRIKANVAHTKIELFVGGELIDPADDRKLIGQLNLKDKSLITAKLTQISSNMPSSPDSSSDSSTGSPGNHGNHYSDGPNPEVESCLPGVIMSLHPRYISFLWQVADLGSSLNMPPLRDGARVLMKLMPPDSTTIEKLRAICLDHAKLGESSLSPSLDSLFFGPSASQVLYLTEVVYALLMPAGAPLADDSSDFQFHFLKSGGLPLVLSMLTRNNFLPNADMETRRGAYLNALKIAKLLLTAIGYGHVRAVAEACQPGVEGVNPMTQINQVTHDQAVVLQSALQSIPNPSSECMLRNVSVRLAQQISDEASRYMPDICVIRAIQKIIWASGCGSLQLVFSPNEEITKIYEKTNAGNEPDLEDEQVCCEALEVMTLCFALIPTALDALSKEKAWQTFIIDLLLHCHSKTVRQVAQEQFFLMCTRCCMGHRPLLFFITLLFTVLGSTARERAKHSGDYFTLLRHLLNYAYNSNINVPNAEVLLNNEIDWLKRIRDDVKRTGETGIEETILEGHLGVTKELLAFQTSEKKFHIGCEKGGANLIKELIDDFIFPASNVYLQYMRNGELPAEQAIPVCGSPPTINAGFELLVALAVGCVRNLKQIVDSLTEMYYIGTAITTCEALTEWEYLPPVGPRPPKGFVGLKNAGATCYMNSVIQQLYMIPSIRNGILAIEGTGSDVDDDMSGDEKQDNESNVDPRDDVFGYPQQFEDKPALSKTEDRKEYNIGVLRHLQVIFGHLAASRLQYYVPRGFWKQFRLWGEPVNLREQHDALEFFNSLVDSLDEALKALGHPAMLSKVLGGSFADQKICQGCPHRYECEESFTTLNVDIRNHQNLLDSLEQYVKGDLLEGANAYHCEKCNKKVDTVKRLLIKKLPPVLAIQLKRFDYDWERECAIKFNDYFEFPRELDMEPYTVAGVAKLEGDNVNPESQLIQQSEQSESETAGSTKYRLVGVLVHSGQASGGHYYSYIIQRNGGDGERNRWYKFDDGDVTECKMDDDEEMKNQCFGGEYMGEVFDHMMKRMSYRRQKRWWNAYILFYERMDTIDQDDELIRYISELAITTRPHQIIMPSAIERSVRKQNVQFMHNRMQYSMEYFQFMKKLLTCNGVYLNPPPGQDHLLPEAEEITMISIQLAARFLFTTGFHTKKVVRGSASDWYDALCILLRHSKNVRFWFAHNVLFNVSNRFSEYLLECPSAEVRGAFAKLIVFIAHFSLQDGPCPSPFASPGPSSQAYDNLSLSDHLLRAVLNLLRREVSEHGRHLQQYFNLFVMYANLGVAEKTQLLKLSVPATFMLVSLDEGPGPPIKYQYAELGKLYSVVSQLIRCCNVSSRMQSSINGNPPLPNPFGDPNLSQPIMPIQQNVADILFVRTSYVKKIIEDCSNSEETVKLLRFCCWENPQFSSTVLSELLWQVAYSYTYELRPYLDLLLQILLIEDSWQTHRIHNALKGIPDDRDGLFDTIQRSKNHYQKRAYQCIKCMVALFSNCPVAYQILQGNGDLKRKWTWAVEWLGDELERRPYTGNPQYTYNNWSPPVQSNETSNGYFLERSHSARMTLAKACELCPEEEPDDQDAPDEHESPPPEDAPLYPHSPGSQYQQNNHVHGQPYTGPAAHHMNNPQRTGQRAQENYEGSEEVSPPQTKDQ
Sequence of purified recombinant USP9x (Q93008 whole entry, species assumed): as the sequence (Q93008 whole entry) above

| SMILES | Cy5-Ub-VME labelled bands after treatment of cells (DUBs) | K48-linked ubiquitin level (K48-linked ubiquitin) | EC50 (3T3) [µM] | susceptibility of BaF3 parent (growth inhibition) (BaF3 parent) | apoptosis in HeLa (HeLa cells) | inhibition of USP9x (USP9x [1]) | EC50 (USP9x [1]; [5]) [µM] | EC50 (USP9x [1]; [6]) [µM] | inhibition of USP9x in presence of USP7CD [2] | fluorescent signal of USP9x-(Cy5-Ub-VME) complex [2] | inhibition of USP7CD [3] | apoptosis and necrosis in K562 (K562 cells) | selectivity for USP9x among Cy5-Ub-VME reactive bands (USP9x [4]) |
| --- | --- | --- | --- | --- | --- | --- | --- | --- | --- | --- | --- | --- | --- |
| CC(C)(C)OC(=O)NCCc1ccc(N=C=S)cc1 [TU46] | decrease in a number of bands in addition to the band corresponding to USP9x | increases K48-linked ubiquitin | > 110 | susceptible | no apoptosis was detected | significant inhibition | 6 to 12 | 12 | strongly inhibited | oblation of the fluorescent signal | little inhibition | large increase in both apoptosis and necrosis | selective for USP9x |
| O=C(NCc1ccc(N=C=S)cc1)OCc1ccccc1 [TU49] | decrease in a number of bands in addition to the band corresponding to USP9x | – | > 110 | – | no apoptosis was detected | – | – | – | – | – | little inhibition | large increase in both apoptosis and necrosis | – |
| CC(C)(C)OC(=O)NCc1cccc(N=C=S)c1 [TU50] | decrease in a number of bands in addition to the band corresponding to USP9x | – | 80 ± 10 | susceptible | no apoptosis was detected | significant inhibition | 6 to 12 | 9 | strongly inhibited | oblation of the fluorescent signal | little inhibition | large increase in both apoptosis and necrosis | clearly the most affected |
